Experiment [1] addresses T1, Tdp1 (Homo sapiens, UniProt Q9NUW8).
T1 construct: inferred from pET 16B vector and Ni-chelating resin; made in house; host or cells: Escherichia coli BL21(DE3)
As to the kind of experiment: Real-time oligonucleotide biosensor-based Tdp1 inhibition assay. The experiment is classed as biochemical. Here is the method:
The inhibition potency of our synthesised compounds against Tdp1 was evaluated by using a real-time oligonucleotide biosensor-based assay. In this assay, Tdp1 catalyses the removal of fluorophore quenchers from the 3′-end of a modified DNA substrate. […] Hexadecameric oligonucleotide was selected as a Tdp1 substrate, as it contains 5(6)-carboxyfluorescein (FAM) at the 5′-end and fluorophore quencher BHQ1 (Black Hole Quencher-1) at the 3′-end. This approach was used to determine the inhibitory properties of all the chromenes.
The pET 16B-Tdp1 was kindly provided by Dr. K.W. Caldecott (University of Sussex, United Kingdom). Recombinant Tdp1 was expressed in Escherichia coli BL21(DE3) and was purified by chromatography on Ni-chelating resin and phosphocellulose P11, as described in [29].
Real-time Tdp1 activity measurements were carried out as described in [9]. In brief, Tdp1-biosensor (50 nM) was incubated in a buffer that contains 50 mM Tris-HCl pH 8.0, 50 mM NaCl, and 7 mM β-mercaptoethanol (200 μL). The mixture was then supplemented with purified Tdp1 (1.3 nM) and various concentrations of the inhibitor. Fluorescence measurements (Ex485/Em520 nm) were carried out during the linear phase of reaction (from 0 to 8 min) every 55 s. The reactions were incubated at a constant temperature of 26 °C using a POLARstar OPTIMA fluorimeter (BMG LABTECH). The influence of the compounds was evaluated by comparing the fluorescence increase rate in their presence to that of 1.5% DMSO control wells. The data were imported into the MARS Data Analysis 2.0 program (BMG LABTECH), and IC50 values were calculated by non-linear curve fitting.

Experiment [2] has as its target T2, human Tdp1 (residues 149-608) (Homo sapiens, UniProt Q9NUW8).
T2 construct: human Tdp1 (residues 149-608); made in house; host or cells: Escherichia coli BL21(DE3)
As to the kind of experiment: Intrinsic protein fluorescence-based Tdp1 binding assay. Conditions: supplementary figure legends; Tdp1 10 μM, 20 mM Tris, 250 mM NaCl, pH 8, triplicate. How it is done: In addition to the inhibition assay, the binding of our compounds to Tdp1 was also evaluated. An intrinsic protein fluorescence-based assay, which we have previously applied to study the binding of esters combining monoterpenoid and adamantane fragments, was applied. In agreement with the inhibition data, all our compounds were relatively strong binders to Tdp1, with dissociation constants (KD) in the low μM region (Table 1 and Supplementary Figures S1–S7). […] This is possibly due to the large hydrophobic surface of Tdp1. The slight discrepancy between the measured KD and IC50 values is likely due to these non-specific binding events.
Synthetic DNA encoding human Tdp1 (residues 149-608 [2]) was cloned into pET-28a(+) (GenScript), which was then transformed into Escherichia coli BL21(DE3) for recombinant protein production. Protein production was induced with 1 mM IPTG at 28 °C with overnight incubation. Tdp1 was purified using affinity and size exclusion chromatography. Fluorescence was measured using a PerkinElmer EnSpire Multimode Reader. Tdp1 concentration was 10 μM and compound concentrations were 1 μM, 2.5 μM, 5 μM, 10 μM, 15 μM, 20 μM, 30 μM, 50 μM, 100 μM, 200 μM, 350 μM, 500 μM, and 750 μM. Buffer was 20 mM Tris and 250 mM NaCl (pH 8). Excitation wavelength was 280 nm and intrinsic fluorescence was measured between 300 and 450 nm. Control experiments with Tdp1 or compound on its own were also conducted. Background fluorescence arising from the compounds was subtracted from the final spectrum. The total volume per well was 30 μL. Dissociation constant (KD) values were calculated using the following formula (1), which takes non-specific binding into account. I = Imax ×[LT]/KD+[LT] +Ns[LT]
I indicates changes in fluorescence intensity from the titrations, Imax indicates the maximum fluorescence intensity change, [LT] is the titrated ligand concentration, and Ns is the non-specific term. Non-linear curve fitting was conducted using SigmaPlot 13.0 (Systat Software, San Jose, CA, USA). Experiments were conducted in triplicate and the errors shown are standard derivations.

The target of experiment [3] is T1, Tdp1. Conditions: Figure 1; cited from earlier work.

Where two headings read alike, the source gives them in different places.

The text below walks through data of article PMC6222798, “A Novel Class of Tyrosyl-DNA Phosphodiesterase 1 Inhibitors That Contains the Octahydro-2H-chromen-4-ol Scaffold” (Molecules : A Journal of Synthetic Chemistry and Natural …, 2018).

T1 sequence (Q9NUW8 whole entry): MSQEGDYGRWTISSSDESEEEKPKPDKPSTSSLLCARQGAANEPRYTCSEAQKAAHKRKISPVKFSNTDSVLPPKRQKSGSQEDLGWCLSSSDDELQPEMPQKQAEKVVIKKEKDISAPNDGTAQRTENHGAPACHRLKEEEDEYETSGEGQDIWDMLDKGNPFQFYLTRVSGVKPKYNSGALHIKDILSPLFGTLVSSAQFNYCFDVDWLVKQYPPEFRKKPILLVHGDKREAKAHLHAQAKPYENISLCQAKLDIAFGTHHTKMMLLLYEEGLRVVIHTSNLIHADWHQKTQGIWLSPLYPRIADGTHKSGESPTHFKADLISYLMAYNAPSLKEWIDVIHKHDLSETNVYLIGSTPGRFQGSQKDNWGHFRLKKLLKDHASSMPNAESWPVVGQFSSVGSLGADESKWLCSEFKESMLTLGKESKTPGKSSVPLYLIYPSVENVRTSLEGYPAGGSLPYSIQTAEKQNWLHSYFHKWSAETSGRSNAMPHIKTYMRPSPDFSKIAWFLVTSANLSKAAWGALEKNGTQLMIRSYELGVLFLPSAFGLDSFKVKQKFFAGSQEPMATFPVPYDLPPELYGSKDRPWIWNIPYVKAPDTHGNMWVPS
T2 sequence (Q9NUW8 149-608): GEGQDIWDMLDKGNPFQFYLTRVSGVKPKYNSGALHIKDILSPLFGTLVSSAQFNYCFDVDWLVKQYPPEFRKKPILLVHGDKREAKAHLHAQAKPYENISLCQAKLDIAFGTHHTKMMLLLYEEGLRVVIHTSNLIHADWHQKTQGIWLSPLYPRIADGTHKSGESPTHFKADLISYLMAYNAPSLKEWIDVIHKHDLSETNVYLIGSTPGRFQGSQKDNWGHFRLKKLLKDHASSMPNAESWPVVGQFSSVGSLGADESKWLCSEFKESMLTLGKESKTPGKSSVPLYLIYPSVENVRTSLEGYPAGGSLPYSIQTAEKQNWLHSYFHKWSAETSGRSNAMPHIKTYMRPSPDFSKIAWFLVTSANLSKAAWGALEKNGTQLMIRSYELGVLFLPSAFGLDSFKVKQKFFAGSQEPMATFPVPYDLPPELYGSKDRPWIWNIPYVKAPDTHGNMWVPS

For orientation: IC50 means the point on the concentration scale where inhibition reaches its midpoint. A word on the Kd: it is the constant that tells how readily two partners part at equilibrium. Higher therefore signals lower affinity. Turning to `C[C@@H]1CC[C@@H]2[C@@H](C1)O[C@@H](c1ccc([N+](=O)[O-])s1)C[C@@]2(C)O` [(4R)-8, (2R,4aR,7R,8aS)-4,7-Dimethyl-2-(5-nitrothiophen-2-yl)octahydro-2H-chromen-4-ols], the IC50 at Tdp1 [1] (Table 1, (4R) diastereomer) was more than 15 µM; at Tdp1 [1] (Table 2), more than 15 µM. The molecule also came in with a Kd in experiment [2] of 23.3 ± 7.4 µM.

In the case of `C[C@@H]1CC[C@@H]2[C@H](C1)O[C@@H](c1ccc(N)s1)C[C@@]2(C)O` [(4R)-9, (2R,4R,4aR,7R,8aS)-4,7-Dimethyl-2-(5-aminothiophen-2-yl)octahydro-2H-chromen-4-ol], the IC50 was more than 15 µM at Tdp1 [1] (Table 1, (4R) diastereomer) and more than 15 µM on Tdp1 [1] (Table 2).

The molecule `CC(=O)Nc1ccc([C@H]2C[C@@](C)(O)[C@@H]3CC[C@@H](C)C[C@H]3O2)s1` [(4R)-10, N-(5-((2R,4R,4aR,7R,8aR)-4-Hydroxy-4,7-dimethyloctahydro-2H-chromen-2-yl)thiophen-2-yl)acetamide] returned a concentration for half-maximal inhibition (IC50) on Tdp1 [1] (Table 1, (4R) diastereomer) of 2.9 ± 0.8 µM.

As to `C[C@@H]1CC[C@@H]2[C@@H](C1)O[C@@H](c1ccc(NC(=O)C(F)(F)F)s1)C[C@@]2(C)O` [(4R)-11, 2,2,2-Trifluoro-N-(5-((2R,4R,4aR,7R,8aR)-4-hydroxy-4,7-dimethyloctahydro-2H-chromen-2-yl)thiophen-2-yl)acetamide], the IC50 against Tdp1 [1] (Table 1, (4R) diastereomer) is 4 ± 0.4 µM. Also, the Kd in experiment [2] came out at 19.8 ± 2.4 µM.

On Tdp1 [1] (Table 1, (4R) diastereomer), `C[C@@H]1CC[C@@H]2[C@@H](C1)O[C@@H](c1ccc(NC(=O)c3ccccc3)s1)C[C@@]2(C)O` [(4R)-12, N-(5-((2R,4R,4aR,7R,8aR)-4-Hydroxy-4,7-dimethyloctahydro-2H-chromen-2-yl)thiophen-2-yl)benzamide] came in with a half-maximal inhibitory concentration (IC50) of 3.3 ± 0.2 µM.

`C[C@@H]1CC[C@@H]2[C@H](C1)O[C@@H](c1ccc(NC(=O)C34CC5CC(CC(C5)C3)C4)s1)C[C@@]2(C)O` [(4R)-13, N-(5-((2R,4R,4aR,7R,8aS)-4-Hydroxy-4,7-dimethyloctahydro-2H-chromen-2-yl)thiophen-2-yl)adamantane-1-carboxamide]: inhibition at Tdp1 [1] (Table 1, (4R) diastereomer) was half-maximal at 2.8 ± 0.6 µM (IC50). In addition, in experiment [2], binding was put at a Kd of 12.4 ± 7.5 µM.

`C[C@@H]1CC[C@@H]2[C@@H](C1)O[C@@H](c1ccc([N+](=O)[O-])s1)C[C@]2(C)O` [(4S)-8, (2R,4aR,7R,8aS)-4,7-Dimethyl-2-(5-nitrothiophen-2-yl)octahydro-2H-chromen-4-ols]: the IC50 on Tdp1 [1] (Table 1, (4S) diastereomer) was more than 15 µM; on Tdp1 [1] (Table 2) it was more than 15 µM. Moreover, in experiment [2], the dissociation constant (Kd) was found to be 30.6 ± 9.33 µM.

Turning to `C[C@@H]1CC[C@@H]2[C@H](C1)O[C@@H](c1ccc(N)s1)C[C@]2(C)O` [(4S)-9, (2R,4S,4aR,7R,8aS)-4,7-dimethyl-2-(5-aminothiophen-2-yl)octahydro-2H-chromen-4-ol], the IC50 on Tdp1 [1] (Table 1, (4S) diastereomer) was more than 15 µM; on Tdp1 [1] (Table 2), more than 15 µM.

In turn, `CC(=O)Nc1ccc([C@H]2C[C@](C)(O)[C@@H]3CC[C@@H](C)C[C@H]3O2)s1` [(4S)-10, N-(5-((2R,4S,4aR,7R,8aR)-4-Hydroxy-4,7-dimethyloctahydro-2H-chromen-2-yl)thiophen-2-yl)acetamide] had an IC50 on Tdp1 [1] (Table 1, (4S) diastereomer) of 5.8 ± 3 µM.

For the molecule `C[C@@H]1CC[C@@H]2[C@@H](C1)O[C@@H](c1ccc(NC(=O)C(F)(F)F)s1)C[C@]2(C)O` [(4S)-11, 2,2,2-Trifluoro-N-(5-((2R,4S,4aR,7R,8aR)-4-hydroxy-4,7-dimethyloctahydro-2H-chromen-2-yl)thiophen-2-yl)acetamide], the IC50 at Tdp1 [1] (Table 1, (4S) diastereomer) was 1.4 ± 0.3 µM. In experiment [2], this molecule displayed a Kd of 2 ± 1.2 µM.

On Tdp1 [1] (Table 1, (4S) diastereomer), `C[C@@H]1CC[C@@H]2[C@@H](C1)O[C@@H](c1ccc(NC(=O)c3ccccc3)s1)C[C@]2(C)O` [(4S)-12, N-(5-((2R,4S,4aR,7R,8aR)-4-Hydroxy-4,7-dimethyloctahydro-2H-chromen-2-yl)thiophen-2-yl)benzamide] had an IC50 of 5 ± 1.5 µM. The dissociation constant (Kd) in experiment [2] amounted to 24.5 ± 5.7 µM.

`C[C@@H]1CC[C@@H]2[C@H](C1)O[C@@H](c1ccc(NC(=O)C34CC5CC(CC(C5)C3)C4)s1)C[C@]2(C)O` [(4S)-13, N-(5-((2R,4S,4aR,7R,8aS)-4-Hydroxy-4,7-dimethyloctahydro-2H-chromen-2-yl)thiophen-2-yl)adamantane-1-carboxamide] showed a concentration for half-maximal inhibition (IC50) against Tdp1 [1] (Table 1, (4S) diastereomer) of 1.24 ± 0.02 µM. This molecule registered a dissociation constant (Kd) in experiment [2] of 17.9 ± 3.4 µM.

On to `O=c1cccc([C@H]2[C@H](c3ccc(O)cc3)[C@H](c3cccc(=O)o3)[C@H]2c2ccc(O)cc2)o1` [Compound 2, achyrodimer F], for which, at Tdp1 [3], the 50% inhibitory concentration (IC50) is 1 µM.

With `CC1(C)[C@H]2CC=C(COc3ccc4c5c(c(=O)oc4c3)CCC5)[C@@H]1C2` [Compound 3], the half-inhibitory concentration (IC50) at Tdp1 [3] was 0.675 µM.
